Source: PubChem BioAssay (NCI)
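Method: 48-hour compound exposure of cells in 96-well plates, five concentrations, linear interpolation of endpoints. TGI marks complete inhibition of growth.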

Legend:
Test in all cases: inhibition of tumour cell growth, NCI panel, 48 h
[1] = tested on: EKVX NSCLC
[2] = tested on: K-562 leukemia
[3] = tested on: NCI-H23 lung
[4] = tested on: SF-295 CNS
[5] = tested on: HS 578T breast
[6] = tested on: SK-MEL-5 melanoma
[7] = tested on: NCI-H226 lung
[8] = tested on: IGROV1 ovarian
[9] = tested on: T-47D breast
[10] = tested on: HOP-92 NSCLC
[11] = tested on: TK-10 renal
[12] = tested on: M14 melanoma
[13] = tested on: 786-0 renal
[14] = tested on: MDA-MB-435
[15] = tested on: NCI/ADR-RES ovarian
[16] = tested on: MCF7 breast
[17] = tested on: U251 CNS
[18] = tested on: SF-539 CNS
[19] = tested on: MDA-N
[20] = tested on: ACHN renal
[21] = tested on: OVCAR-4 ovarian
[22] = tested on: SK-OV-3 ovarian
[23] = tested on: UACC-62 melanoma
[24] = tested on: PC-3 prostate
[25] = tested on: NCI-H460 lung
[26] = tested on: UACC-257 melanoma
[27] = tested on: MOLT-4 leukemia
[28] = tested on: DU-145 prostate
[29] = tested on: HL-60(TB) leukemia
[30] = tested on: SK-MEL-2 melanoma
[31] = tested on: HCT-116 colon
[32] = tested on: RXF 393 renal
[33] = tested on: CCRF-CEM leukemia
[34] = tested on: HCT-15 colon
[35] = tested on: LOX IMVI melanoma
[36] = tested on: SNB-75 CNS
[37] = tested on: COLO 205 colon
[38] = tested on: HT29 colon
[39] = tested on: A498 renal
[40] = tested on: SW-620 colon
[41] = tested on: MDA-MB-231 breast
[42] = tested on: OVCAR-3 ovarian
[43] = tested on: CAKI-1 renal
[44] = tested on: SN12C renal
[45] = tested on: OVCAR-5 ovarian
[46] = tested on: A549 NSCLC
[47] = tested on: SF-268 CNS
[48] = tested on: MALME-3M melanoma
[49] = tested on: OVCAR-8 ovarian
[50] = tested on: UO-31 renal
[51] = tested on: SNB-19 CNS
[52] = tested on: NCI-H522 lung
[53] = tested on: KM12 colon
[54] = tested on: BT-549 breast
[55] = tested on: SK-MEL-28 melanoma
[56] = tested on: HCC-2998 colon
[57] = tested on: HOP-62 NSCLC

Question: `O=C(C1OC1c1ccc(F)cc1)C12CC3CC(CC(C3)C1)C2` (configuration not stated) was tested. Which TGI [1] did it give?
Answer: The TGI was 45.1 µM.

Question: What about the TGI [2] of the same compound?
Answer: The TGI was 37.2 µM.

Question: What about the TGI [3] of the same compound?
Answer: The TGI was 43.4 µM.

Question: And the TGI [4]?
Answer: Its TGI is 79.1 µM.

Question: And the TGI [5]?
Answer: Its TGI is 60.1 µM.

Question: And the TGI [6]?
Answer: The TGI was 30.7 µM.

Question: And the TGI [7]?
Answer: Its TGI is 46.6 µM.

Question: And the TGI [8]?
Answer: Its TGI is 59.8 µM.

Question: What about the TGI [9] of the same compound?
Answer: Its TGI is greater than 100 µM.

Question: What about the TGI [10] of the same compound?
Answer: Its TGI is 52.7 µM.

Question: What about the TGI [11] of the same compound?
Answer: The TGI was greater than 100 µM.

Question: And the TGI [12]?
Answer: Its TGI is 31.4 µM.

Question: And the TGI [13]?
Answer: The TGI was 36.5 µM.

Question: What about the TGI [14] of the same compound?
Answer: The TGI was 26.2 µM.

Question: And the TGI [15]?
Answer: Its TGI is 48.1 µM.

Question: And the TGI [16]?
Answer: The TGI was 95.4 µM.

Question: What about the TGI [17] of the same compound?
Answer: The TGI was 24.5 µM.

Question: And the TGI [18]?
Answer: The TGI was 45.7 µM.

Question: And the TGI [19]?
Answer: Its TGI is 32.5 µM.

Question: What about the TGI [20] of the same compound?
Answer: Its TGI is 85 µM.

Question: And the TGI [21]?
Answer: Its TGI is 40.2 µM.

Question: What about the TGI [22] of the same compound?
Answer: Its TGI is 70.3 µM.

Question: What about the TGI [23] of the same compound?
Answer: The TGI was 38.7 µM.

Question: And the TGI [24]?
Answer: Its TGI is greater than 100 µM.

Question: And the TGI [25]?
Answer: Its TGI is 31.1 µM.

Question: What about the TGI [26] of the same compound?
Answer: Its TGI is 86.6 µM.

Question: And the TGI [27]?
Answer: Its TGI is 35.3 µM.

Question: What about the TGI [28] of the same compound?
Answer: The TGI was greater than 100 µM.

Question: And the TGI [29]?
Answer: The TGI was 31.1 µM.

Question: What about the TGI [30] of the same compound?
Answer: The TGI was 30.6 µM.

Question: What about the TGI [31] of the same compound?
Answer: The TGI was 20.1 µM.

Question: And the TGI [32]?
Answer: Its TGI is 32.7 µM.

Question: And the TGI [33]?
Answer: The TGI was 37 µM.

Question: What about the TGI [34] of the same compound?
Answer: Its TGI is 56.7 µM.

Question: What about the TGI [35] of the same compound?
Answer: Its TGI is 12.3 µM.

Question: What about the TGI [36] of the same compound?
Answer: Its TGI is greater than 100 µM.

Question: What about the TGI [37] of the same compound?
Answer: Its TGI is 30.9 µM.

Question: And the TGI [38]?
Answer: Its TGI is 45.4 µM.

Question: And the TGI [39]?
Answer: The TGI was 58 µM.

Question: And the TGI [40]?
Answer: Its TGI is 44.2 µM.

Question: What about the TGI [41] of the same compound?
Answer: Its TGI is 52.8 µM.

Question: What about the TGI [42] of the same compound?
Answer: The TGI was 33.5 µM.

Question: And the TGI [43]?
Answer: The TGI was 57 µM.

Question: And the TGI [44]?
Answer: The TGI was 44.4 µM.

Question: What about the TGI [45] of the same compound?
Answer: The TGI was 54.7 µM.

Question: What about the TGI [46] of the same compound?
Answer: Its TGI is 59.7 µM.

Question: And the TGI [47]?
Answer: The TGI was 61.2 µM.

Question: And the TGI [48]?
Answer: The TGI was 78.6 µM.

Question: And the TGI [49]?
Answer: Its TGI is 29 µM.

Question: And the TGI [50]?
Answer: Its TGI is 51.5 µM.

Question: What about the TGI [51] of the same compound?
Answer: The TGI was greater than 100 µM.

Question: What about the TGI [52] of the same compound?
Answer: Its TGI is 38.2 µM.

Question: And the TGI [53]?
Answer: The TGI was 46.8 µM.

Question: And the TGI [54]?
Answer: Its TGI is 67.3 µM.

Question: What about the TGI [55] of the same compound?
Answer: Its TGI is 59 µM.

Question: What about the TGI [56] of the same compound?
Answer: Its TGI is 36.8 µM.

Question: And the TGI [57]?
Answer: The TGI was 70.8 µM.
